Columns and labels:
corn (ZEAMD) [1] = assay: Test H preemergence mixtures of compound 2 with crop safeners; type: in vivo, Zea mays cv. ‘Pioneer 33G26’; set-up: key to ZEAMD Obsd. (observed effect): observed % effect, visually evaluated vs controls; settings: Test H, alone
Excerpt: (§1) Seeds of test plants consisting of winter wheat (TRZAW, Triticum aestivum), corn (ZEAMD, Zea mays cv. ‘Pioneer 33G26’), giant foxtail (SETFA, Setaria faberi), and Italian ryegrass (LOLMU, Lolium multiflorum) were planted into a blend of loam soil and sand and treated preemergence with a directed soil spray using test chemicals formulated in a non-phytotoxic solvent mixture that included a surfactant. Seeds of small-seeded species were planted about 1 cm deep; larger seeds were planted about 2.5 cm deep. […] Balanced fertilizer was applied through the watering system. Treatments consisted of Compound 2 and the above mentioned safeners alone and in combination using a spray volume of 457 L/ha. Each treatment was replicated four times. Treated plants and controls were maintained in a greenhouse for 14 to 21 days, after which time all species were compared to controls and visually evaluated. […] A dash (-) response means no test result. Colby's Equation was used to determine the herbicidal effects expected from the mixtures. Colby's Equation (Colby, S. […] wherein • Pa+b is the percentage effect of the mixture expected from additive contribution of the individual components, • Pa is the observed percentage effect of the first active ingredient at the same use rate as in the mixture, and • Pb is the observed percentage effect of the second active ingredient at the same use rate as in the mixture.

Italian ryegrass (LOLMU) [2] = assay: Test I preemergence mixtures of compound 2 with crop safeners; type: in vivo, Lolium multiflorum; settings: alone
Excerpt: (§2) Seeds of test plants consisting of winter wheat (TRZAW, Triticum aestivum), corn (ZEAMD, Zea mays cv. ‘Pioneer 33G26’), wild oat (AVEFA, Avena fatua), and Italian ryegrass (LOLMU, Lolium multiflorum) were planted into a blend of loam soil and sand and treated preemergence with a directed soil spray using test chemicals formulated in a non-phytotoxic solvent mixture that included a surfactant. Seeds of small-seeded species were planted about 1 cm deep; larger seeds were planted about 2.5 cm deep. […] Balanced fertilizer was applied through the watering system. Treatments consisted of Compound 2 and the above mentioned safeners alone and in combination using a spray volume of 457 L/ha. Each treatment was replicated four times. Treated plants and controls were maintained in a greenhouse for 14 to 21 days, after which time all species were compared to controls and visually evaluated. […] A dash (-) response means no test result. Colby's Equation was used to determine the herbicidal effects expected from the mixtures. Colby's Equation (Colby, S. […] Pa+b=Pa+Pb−(PaPb/100) wherein • Pa+b is the percentage effect of the mixture expected from additive contribution of the individual components, • Pa is the observed percentage effect of the first active ingredient at the same use rate as in the mixture, and • Pb is the observed percentage effect of the second active ingredient at the same use rate as in the mixture.

wild oat (AVEFA) = assay: as above; type: in vivo, Avena fatua; settings: alone
Excerpt: as §2

corn (ZEAMD) [3] = assay: Test J preemergence mixtures of Compound 2 with crop safeners; type: in vivo, Zea mays cv. ‘Pioneer 33G26’; set-up: key to ZEAMD Obsd. (observed effect): observed % herbicidal effect; settings: for ZEAMD Obsd. (observed effect): Test J, alone
Excerpt: as §1, with “aestivum) and” for “aestivum),”, “33G26’)” for “33G26’), giant foxtail (SETFA, Setaria faberi), and Italian ryegrass (LOLMU, Lolium multiflorum)”, “surfactant.” for “surfactant. Seeds of small-seeded species were planted about 1 cm deep; larger seeds were planted about 2.5 cm deep.”, “times.” for “times. Treated plants and controls were maintained in a greenhouse for 14 to 21 days, after which time all species were compared to controls and visually evaluated.”, “and” for “and •”

Italian ryegrass (LOLMU) [4] = assay: Test H preemergence mixtures of compound 2 with crop safeners; type: in vivo, Lolium multiflorum; set-up: key to LOLMU Obsd. (observed effect): observed % effect, visually evaluated vs controls; settings: Test H, alone
Excerpt: as §1

giant foxtail (SETFA) = assay: as above; type: in vivo, Setaria faberi; set-up: key to SETFA Obsd. (observed effect): observed % effect, visually evaluated vs controls; settings: Test H, alone
Excerpt: as §1

winter wheat (TRZAW) [5] = assay: Test I preemergence mixtures of compound 2 with crop safeners; type: in vivo, Triticum aestivum; settings: alone
Excerpt: as §2

winter wheat (TRZAW) [6] = assay: Test J preemergence mixtures of Compound 2 with crop safeners; type: in vivo, Triticum aestivum; set-up: key to TRZAW Obsd. (observed effect): observed % herbicidal effect; settings: for TRZAW Obsd. (observed effect): Test J, alone
Excerpt: as §1, with “aestivum) and” for “aestivum),”, “33G26’)” for “33G26’), giant foxtail (SETFA, Setaria faberi), and Italian ryegrass (LOLMU, Lolium multiflorum)”, “surfactant.” for “surfactant. Seeds of small-seeded species were planted about 1 cm deep; larger seeds were planted about 2.5 cm deep.”, “times.” for “times. Treated plants and controls were maintained in a greenhouse for 14 to 21 days, after which time all species were compared to controls and visually evaluated.”, “and” for “and •”

corn (ZEAMD) [7] = assay: Test I preemergence mixtures of compound 2 with crop safeners; type: in vivo, Zea mays cv. ‘Pioneer 33G26’; settings: alone
Excerpt: as §2

winter wheat (TRZAW) [8] = assay: Test H preemergence mixtures of compound 2 with crop safeners; type: in vivo, Triticum aestivum; set-up: key to TRZAW Obsd. (observed effect): observed % effect, visually evaluated vs controls; settings: Test H, alone
Excerpt: as §1

CC1COc2ccccc2N1C(=O)C(Cl)Cl (centres unmarked) [benoxacor]
0: ZEAMD Obsd. (observed effect) (corn (ZEAMD) [1]; 8 g a.i./ha) | ZEAMD Obsd. (observed effect) (corn (ZEAMD) [1]; 16 g a.i./ha) | ZEAMD Obsd. (observed effect) (corn (ZEAMD) [1]; 31 g a.i./ha) | LOLMU Obsd. (observed effect) (Italian ryegrass (LOLMU) [2]; 4 g a.i./ha) | LOLMU Obsd. (observed effect) (Italian ryegrass (LOLMU) [2]; 8 g a.i./ha) | AVEFA Obsd. (observed effect) (wild oat (AVEFA); 4 g a.i./ha) | AVEFA Obsd. (observed effect) (wild oat (AVEFA); 8 g a.i./ha) | ZEAMD Obsd. (observed effect) (corn (ZEAMD) [3]; 8 g a.i./ha) | ZEAMD Obsd. (observed effect) (corn (ZEAMD) [3]; 31 g a.i./ha) | ZEAMD Obsd. (observed effect) (corn (ZEAMD) [3]; 125 g a.i./ha) | ZEAMD Obsd. (observed effect) (corn (ZEAMD) [3]; 500 g a.i./ha) | LOLMU Obsd. (observed effect) (Italian ryegrass (LOLMU) [4]; 8 g a.i./ha) | LOLMU Obsd. (observed effect) (Italian ryegrass (LOLMU) [4]; 16 g a.i./ha) | LOLMU Obsd. (observed effect) (Italian ryegrass (LOLMU) [4]; 31 g a.i./ha) | SETFA Obsd. (observed effect) (giant foxtail (SETFA); 8 g a.i./ha) | SETFA Obsd. (observed effect) (giant foxtail (SETFA); 31 g a.i./ha) | TRZAW Obsd. (observed effect) (winter wheat (TRZAW) [5]; 4 g a.i./ha) | TRZAW Obsd. (observed effect) (winter wheat (TRZAW) [5]; 8 g a.i./ha) | TRZAW Obsd. (observed effect) (winter wheat (TRZAW) [6]; 8 g a.i./ha) | TRZAW Obsd. (observed effect) (winter wheat (TRZAW) [6]; 31 g a.i./ha) | TRZAW Obsd. (observed effect) (winter wheat (TRZAW) [6]; 125 g a.i./ha) | TRZAW Obsd. (observed effect) (winter wheat (TRZAW) [6]; 500 g a.i./ha) | ZEAMD Obsd. (observed effect) (corn (ZEAMD) [7]; 4 g a.i./ha) | ZEAMD Obsd. (observed effect) (corn (ZEAMD) [7]; 8 g a.i./ha) | TRZAW Obsd. (observed effect) (winter wheat (TRZAW) [8]; 8 g a.i./ha) | TRZAW Obsd. (observed effect) (winter wheat (TRZAW) [8]; 16 g a.i./ha) | TRZAW Obsd. (observed effect) (winter wheat (TRZAW) [8]; 31 g a.i./ha)
3: SETFA Obsd. (observed effect) (giant foxtail (SETFA); 16 g a.i./ha)

C=CCN(CC=C)C(=O)C(Cl)Cl [dichlormid]
3: SETFA Obsd. (observed effect) (giant foxtail (SETFA); 31 g a.i./ha)
0: ZEAMD Obsd. (observed effect) (corn (ZEAMD) [1]; 8 g a.i./ha) | ZEAMD Obsd. (observed effect) (corn (ZEAMD) [1]; 16 g a.i./ha) | ZEAMD Obsd. (observed effect) (corn (ZEAMD) [1]; 31 g a.i./ha) | LOLMU Obsd. (observed effect) (Italian ryegrass (LOLMU) [2]; 4 g a.i./ha) | LOLMU Obsd. (observed effect) (Italian ryegrass (LOLMU) [2]; 8 g a.i./ha) | AVEFA Obsd. (observed effect) (wild oat (AVEFA); 4 g a.i./ha) | AVEFA Obsd. (observed effect) (wild oat (AVEFA); 8 g a.i./ha) | LOLMU Obsd. (observed effect) (Italian ryegrass (LOLMU) [4]; 8 g a.i./ha) | LOLMU Obsd. (observed effect) (Italian ryegrass (LOLMU) [4]; 16 g a.i./ha) | LOLMU Obsd. (observed effect) (Italian ryegrass (LOLMU) [4]; 31 g a.i./ha) | SETFA Obsd. (observed effect) (giant foxtail (SETFA); 8 g a.i./ha) | SETFA Obsd. (observed effect) (giant foxtail (SETFA); 16 g a.i./ha) | TRZAW Obsd. (observed effect) (winter wheat (TRZAW) [5]; 4 g a.i./ha) | TRZAW Obsd. (observed effect) (winter wheat (TRZAW) [5]; 8 g a.i./ha) | ZEAMD Obsd. (observed effect) (corn (ZEAMD) [7]; 4 g a.i./ha) | ZEAMD Obsd. (observed effect) (corn (ZEAMD) [7]; 8 g a.i./ha) | TRZAW Obsd. (observed effect) (winter wheat (TRZAW) [8]; 8 g a.i./ha) | TRZAW Obsd. (observed effect) (winter wheat (TRZAW) [8]; 16 g a.i./ha) | TRZAW Obsd. (observed effect) (winter wheat (TRZAW) [8]; 31 g a.i./ha)
0%: Observed effect (Obsd.), ZEAMD (corn (ZEAMD) [3]; safener alone at 8 g a.i./ha) | Observed effect (Obsd.), ZEAMD (corn (ZEAMD) [3]; safener alone at 31 g a.i./ha) | Observed effect (Obsd.), ZEAMD (corn (ZEAMD) [3]; safener alone at 500 g a.i./ha) | Observed effect (Obsd.), TRZAW (winter wheat (TRZAW) [6]; safener alone at 8 g a.i./ha) | Observed effect (Obsd.), TRZAW (winter wheat (TRZAW) [6]; safener alone at 31 g a.i./ha)

CCOC(=O)C1=NOC(c2ccccc2)(c2ccccc2)C1 [isoxadifen-ethyl]
0%: Observed effect (Obsd.), ZEAMD (corn (ZEAMD) [3]; safener alone at 8 g a.i./ha) | Observed effect (Obsd.), ZEAMD (corn (ZEAMD) [3]; safener alone at 31 g a.i./ha) | Observed effect (Obsd.), ZEAMD (corn (ZEAMD) [3]; safener alone at 500 g a.i./ha) | Observed effect (Obsd.), ZEAMD (corn (ZEAMD) [3]; single active ingredient alone at 125 g a.i./ha) | Observed effect (Obsd.), TRZAW (winter wheat (TRZAW) [6]; safener alone at 8 g a.i./ha) | Observed effect (Obsd.), TRZAW (winter wheat (TRZAW) [6]; safener alone at 31 g a.i./ha) | Observed effect (Obsd.), TRZAW (winter wheat (TRZAW) [6]; safener alone at 500 g a.i./ha)
0: ZEAMD Obsd. (observed effect) (corn (ZEAMD) [1]; 8 g a.i./ha) | ZEAMD Obsd. (observed effect) (corn (ZEAMD) [1]; 16 g a.i./ha) | ZEAMD Obsd. (observed effect) (corn (ZEAMD) [1]; 31 g a.i./ha) | LOLMU Obsd. (observed effect) (Italian ryegrass (LOLMU) [2]; 4 g a.i./ha) | LOLMU Obsd. (observed effect) (Italian ryegrass (LOLMU) [2]; 8 g a.i./ha) | AVEFA Obsd. (observed effect) (wild oat (AVEFA); 4 g a.i./ha) | AVEFA Obsd. (observed effect) (wild oat (AVEFA); 8 g a.i./ha) | LOLMU Obsd. (observed effect) (Italian ryegrass (LOLMU) [4]; 8 g a.i./ha) | LOLMU Obsd. (observed effect) (Italian ryegrass (LOLMU) [4]; 16 g a.i./ha) | LOLMU Obsd. (observed effect) (Italian ryegrass (LOLMU) [4]; 31 g a.i./ha) | SETFA Obsd. (observed effect) (giant foxtail (SETFA); 8 g a.i./ha) | SETFA Obsd. (observed effect) (giant foxtail (SETFA); 16 g a.i./ha) | TRZAW Obsd. (observed effect) (winter wheat (TRZAW) [5]; 4 g a.i./ha) | TRZAW Obsd. (observed effect) (winter wheat (TRZAW) [5]; 8 g a.i./ha) | ZEAMD Obsd. (observed effect) (corn (ZEAMD) [7]; 4 g a.i./ha) | ZEAMD Obsd. (observed effect) (corn (ZEAMD) [7]; 8 g a.i./ha) | TRZAW Obsd. (observed effect) (winter wheat (TRZAW) [8]; 8 g a.i./ha) | TRZAW Obsd. (observed effect) (winter wheat (TRZAW) [8]; 16 g a.i./ha) | TRZAW Obsd. (observed effect) (winter wheat (TRZAW) [8]; 31 g a.i./ha)
3: SETFA Obsd. (observed effect) (giant foxtail (SETFA); 31 g a.i./ha)
